Source: patent US4999436A, “Aryl-substituted thiophene 3-ols, derivatives and analogs useful as lipoxgenase inhibitors” (Merck & Co., Inc., priority 1989, dated 1991)
Values joined by “and” are separate entries in the source; they are usually repeats but may differ in a detail not shown here. Equal values may be shown once.

Tests used:
[1] = biological target: T1, cyclooxygenase (Ovis aries, UniProt P05979); assay: RSVM-CO: Ram Seminal Vesicle Microsomal Cyclooxygenase assay; type: biochemical; conditions: for inhibition at 0.01 µg/mL: 0.01 μg/ml; for inhibition at 0.1 µg/mL: 0.1 μg/ml; for inhibition at 1 µg/mL: 1 μg/ml; for inhibition at 10 µg/mL: 10 μg/ml
T1 construct: Ram seminal vesicular glands were trimmed of fat; from tissue; host or cells: ram seminal vesicular glands, microsomal pellet (105K xg)
T1 sequence (P05979 25-600): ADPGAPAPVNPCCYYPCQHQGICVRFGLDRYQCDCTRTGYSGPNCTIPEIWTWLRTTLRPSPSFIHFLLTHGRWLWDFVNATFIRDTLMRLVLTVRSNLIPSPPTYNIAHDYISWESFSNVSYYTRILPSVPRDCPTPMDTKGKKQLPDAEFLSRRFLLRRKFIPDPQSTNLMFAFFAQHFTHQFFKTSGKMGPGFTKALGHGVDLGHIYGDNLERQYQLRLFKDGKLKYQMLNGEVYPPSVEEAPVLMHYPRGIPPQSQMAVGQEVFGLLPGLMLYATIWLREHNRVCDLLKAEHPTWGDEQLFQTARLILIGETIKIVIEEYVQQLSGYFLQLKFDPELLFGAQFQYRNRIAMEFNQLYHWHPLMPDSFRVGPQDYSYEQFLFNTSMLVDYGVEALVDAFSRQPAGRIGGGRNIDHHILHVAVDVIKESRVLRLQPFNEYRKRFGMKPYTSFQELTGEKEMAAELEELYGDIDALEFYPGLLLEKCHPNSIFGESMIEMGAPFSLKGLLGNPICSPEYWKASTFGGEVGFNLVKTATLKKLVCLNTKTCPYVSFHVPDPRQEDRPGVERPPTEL
Text: (§1) Two screening methods were employed for the purposes of evaluating the biological activities of the compounds of the present invention. The PMN5LO assay is a direct measure of the capacity to inhibit 5-lipoxygenase. The second protocol, RSVM-CO, is a method of determining inhibition of cyclooxygenase enzyme activity and as such it serves as a negative control.
B. Ram Seminal Vesicle Microsomal Cyclooxygenase (RSVM-CO) Assay Protocol
Ram seminal vesicular glands were trimmed of fat, 50 grams diced into 250 mls ice cold 0.1 M potassium phosphate (pH 7.6) buffer and homogenized using a Brinkman Polytron. The suspension was centrifuged 10 minutes at […] (4° C.) and the supernatant filtered through two cheesecloth layers. The filtrate was centrifuged 160 minutes at 105K xg, the supernatant thereof discarded, and the pellet surface rinsed with a small volume of buffer. The pellets were combined in a small volume, briefly homogenized with the Polytron and frozen in 0.5 ml aliquots at -80° C. The protein concentration was about 50 mg/ml.
The thawed enzyme was diluted 1:63 with 0.125 M Na EDTA (pH 8.0) containing 50 μg/ml BSA. A substrate-cofactor premix was prepared with 66 μM ^14 C-arachidonic acid (about 20K cpm/12.5 μl) in 500 μl 0.125 M Na EDTA (pH 8.0) plus 10 μl 50 mM hydroquinone and 10 μl 200 mM glutathione. To each sample well in the 96 well plate, agents dissolved in 0.5 μ DMSO were added, followed by 12.5 μl of the diluted enzyme. After a 4 minute preincubation at room temperature, 12.5 μl of the substrate-cofactor mix was added to start the reaction. The reaction was terminated after 20 minutes at room temperature by adding 25 μl of methanol containing 200 μg PGE2 and 400 μg AA per ml.
The entire reaction mixture was spotted onto a preadsorbent silica gel GF thin layer plate and, after air drying 45 minutes, developed 12 cm in ethyl acetate:glacial acetic acid (99:1).
The developed lanes were scanned for the distribution of radiolabel using a Bioscan Imaging Detector and the integrated peaks compared to standards and controls yielding % inhibition.

[2] = biological target: T2, 5-lipoxygenase (Rattus norvegicus, UniProt P12527); assay: PMN5LO assay: inhibition of LTB4 production in A23187-stimulated rat peritoneal PMN (RIA); type: cell-based; conditions: for IC50: estimated concentration required for 50% inhibition
T2 construct: endogenous in cells; host or cells: casein-elicited peritoneal polymorphonuclear leukocytes of male Sprague-Dawley rats
T2 sequence (P12527 1-673): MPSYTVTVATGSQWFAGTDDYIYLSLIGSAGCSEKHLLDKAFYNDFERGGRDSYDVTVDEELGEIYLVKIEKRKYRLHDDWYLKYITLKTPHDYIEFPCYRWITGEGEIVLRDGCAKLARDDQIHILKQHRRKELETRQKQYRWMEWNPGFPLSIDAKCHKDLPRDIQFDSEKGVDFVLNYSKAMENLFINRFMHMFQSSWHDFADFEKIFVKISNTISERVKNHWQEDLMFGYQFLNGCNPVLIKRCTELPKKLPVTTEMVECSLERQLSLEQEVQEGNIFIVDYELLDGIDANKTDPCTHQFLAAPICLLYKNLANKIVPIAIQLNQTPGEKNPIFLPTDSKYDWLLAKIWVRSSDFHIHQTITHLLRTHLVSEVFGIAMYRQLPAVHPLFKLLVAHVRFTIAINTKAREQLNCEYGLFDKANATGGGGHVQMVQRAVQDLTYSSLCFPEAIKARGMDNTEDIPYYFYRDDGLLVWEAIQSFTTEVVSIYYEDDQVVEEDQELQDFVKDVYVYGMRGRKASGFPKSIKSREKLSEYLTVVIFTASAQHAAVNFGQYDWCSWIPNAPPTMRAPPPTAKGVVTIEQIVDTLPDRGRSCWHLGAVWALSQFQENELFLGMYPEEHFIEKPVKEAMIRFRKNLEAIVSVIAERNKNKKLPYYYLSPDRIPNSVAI
Method: as §1
Elicition of Rat Peritoneal polymorphonuclear leukoytes (PMN)
Male Sprague-Dawley rats (about 350 grams) were injected intraperitoneally the day before use with 8 ml of 12% sodium caseinate. The next day the animals were killed by CO2 asphyxiation and the peritoneal cavity lavaged twice with 20 ml of Hanks balanced salts containing 15 mM HEPES (pH 7.4), 1.4 mM Ca^++ and 0.7 mM Mg^++ (Hepes-Hanks). The suspensions were filtered through plastic mesh and centrifuged at […] for 5 minutes. The cells were resuspended in 50 ml Hepes-Hanks and recentrifuged. The PMN pellets were combined and suspended at 1.25×10^7 cells/ml.
The cell suspension was then diluted 1:10, preincubated 5 minutes at 37° C. and distributed in 200 μl aliquots in the wells of 96 well microtiter plates. The wells had previously received samples of the compounds of the present invention, controls, etc., in 25 μl of 0.001% fatty acidfree BSA in Hepes-Hanks. The plates were incubated 2 minutes at 37° C. and then the cells were stimulated to produce LTB4 by the addition of 25 μl of 100 μM calcium ionophore, designated A23187. After 4 minutes at 37° C. the plates were frozen in dry ice.
Radioimmunoassay (RIA) of LTB4
The frozen plates were thawed to 4° C. and 25 μl aliquots removed to V well plates. Antibody to LTB4 (50 μl) was added and, after 15 minutes at room temperature, 50 μl of ^3 H-LTB4 was added and the plates were stored overnight at 4° C. to allow equilibration. The next day the "free" 3H-LTB4 was removed by adsorption to dextran coated charcoal [90 μl per well of a 4% charcoal suspension with 0.25% Dextran T-70 in 10 mM potassium phosphate (pH 7.3) containing lmM EDTA and 0.25 mM thimerasol] during a 10 minute ice temperature incubation. The charcoal was removed by a 10 minute centrifugation at 200 sg. Aliquots of the supernatant were counted in a Packard 460, analyzed in a Masscomp computer and the data drawn up as % inhibition of LTB4 production.

Structure (SMILES)	inhibition at 0.1 µg/mL [1]	inhibition at 0.012 µg/mL ([2]; 0.012 μg/ml)	inhibition at 0.037 µg/mL ([2]; 0.037 μg/ml)	inhibition at 0.11 µg/mL ([2]; 0.11 μg/ml)	IC50 [2]	inhibition at 0.33 µg/mL ([2]; 0.33 μg/ml)	PMN5LO % inhibition ([2]; 1 μg/ml)	inhibition at 1 µg/mL ([2]; 1 μg/ml)	also measured
COc1ccc(-c2sc(-c3ccccc3)cc2OC(C)=O)cc1 [Compound 14, 3-Acetoxy-2-(4'-methoxyphenyl)-5-phenylthiophene]	0%	24%			80 nM	100%	80%	100%	PMN5LO % inhibition ([2]; 0.012 μg/ml): 12%; PMN5LO % inhibition ([2]; 0.11 μg/ml): 91% and 46%; PMN5LO % inhibition ([2]; 0.33 μg/ml): 85%
CC(=O)Oc1csc(-c2ccccc2)c1 [Compound 1]		5%	0%	1%		19%		18%	
CC(=O)Oc1c(-c2ccccc2)sc(-c2ccccc2)c1-c1ccccc1 [Compound 8]							18%		
Oc1c(-c2ccccc2)sc(-c2ccccc2)c1-c1ccccc1 [Compound 2, 3-Hydroxy-2,4,5-triphenylthiophene]		22%	14%	0%	~3000 nM			53%	inhibition at 10 µg/mL [1]: 23%; inhibition at 0.3 µg/mL ([2]; 0.3 μg/ml): 0%; inhibition at 10 µg/mL ([2]; 10 μg/ml): 95%
CC(=O)Oc1c(C)sc(-c2ccccc2)c1-c1ccccc1 [Compound 9]								13%	
Oc1cc(-c2ccccc2)sc1-c1cccnc1 [Compound 22]		14%	19%	45%		81%		87%	
COc1ccc(-c2sc3c(c2OC(C)=O)Cc2ccccc2-3)cc1					2500 nM				PMN5LO % inhibition ([2]; 0.012 μg/ml): 0%; inhibition at 0.37 µg/mL ([2]; 0.37 μg/ml (so in the source)): 42%
CC(=O)Oc1cc(-c2ccccc2)sc1-c1cccnc1 [Compound 16, 3-Acetoxy-2-(3'-pyridyl)-5-phenylthiophene]	0%				230 nM	94%	88%	100%	inhibition at 1 µg/mL [1]: 0%; PMN5LO % inhibition ([2]; 0.33 μg/ml): 84%
COc1ccc(-c2sc3c(c2OC(C)=O)CCCC3)cc1	100%				650 nM	85%	97%	100%	inhibition at 1 µg/mL [1]: 11%; PMN5LO % inhibition ([2]; 0.33 μg/ml): 88%; IC50 ([2]; unit inferred): 380 nM
Cc1ccccc1-c1cc(O)c(-c2ccccc2)s1 [Compound 18, 3-Hydroxy-5-(2-methylphenyl)-2-phenylthiophene]		20%	46%	96%	120 nM	100%		96%	
CC(=O)Oc1cc(-c2ccccc2)oc1-c1ccccc1		25%	6%	36%		53%	33% and 66%		
COc1ccc(-c2sc3c(c2OC(C)=O)CCCc2ccccc2-3)cc1 [Compound 20]					> 3000 nM				
c1ccc(-c2ccc(-c3ccccc3)s2)cc1		13%	0%	15%	4000 nM	23%		38%	

More lines, main results first:

inhibition at 0.1 µg/mL [1]	inhibition at 0.012 µg/mL ([2]; 0.012 μg/ml)	inhibition at 0.037 µg/mL ([2]; 0.037 μg/ml)	inhibition at 0.11 µg/mL ([2]; 0.11 μg/ml)	IC50 [2]	inhibition at 0.33 µg/mL ([2]; 0.33 μg/ml)	PMN5LO % inhibition ([2]; 1 μg/ml)	inhibition at 1 µg/mL ([2]; 1 μg/ml)	Structure (SMILES)	also measured
13%	27%	57%	100%	88 nM and 74 nM				CC(=O)Oc1cc(-c2ccccc2)sc1-c1ccccc1 [Compound 3]	inhibition at 0.01 µg/mL [1]: 13%; inhibition at 1 µg/mL [1]: 8%; inhibition at 10 µg/mL [1]: 29%; PMN5LO % inhibition ([2]; 0.012 μg/ml): 38%; PMN5LO % inhibition ([2]; 0.037 μg/ml): 56%; inhibition at 0.05 µg/mL ([2]; 0.05 μg/ml): 100%
0%						74% and 100%		CC(=O)Oc1cc(-c2cccs2)sc1-c1ccccc1	inhibition at 0.01 µg/mL [1]: 0%; inhibition at 1 µg/mL [1]: 0%; PMN5LO % inhibition ([2]; 0.11 μg/ml): 51% and 100%; PMN5LO % inhibition ([2]; 0.33 μg/ml): 52% and 100%
							22%	CCC(=O)Oc1cc(-c2cccc(C(F)(F)F)c2)sc1-c1ccccc1 [Compound 6]	
	15%	15%	17%		34%		79%	CC(=O)Oc1cc(-c2ccccc2)sc1-c1ccccc1C	
60%	0%			200 nM	100%	58%		COCC(=O)Oc1cc(-c2ccccc2)sc1-c1ccccc1 [Compound 10]	PMN5LO % inhibition ([2]; 0.037 μg/ml): 28% and 51%; PMN5LO % inhibition ([2]; 0.11 μg/ml): 73%; IC50 ([2]; unit inferred): 110 nM
	0%	0%	0%		0%		0%	COc1cc(-c2ccccc2)sc1-c1ccccc1 [Compound 19]	
							38%	CC(=O)Oc1cc(-c2cccc(C(F)(F)F)c2)sc1-c1ccccc1 [Compound 5]	
